In patent US20050261162A1, “Pharmaceutical composition for preventing and treating cancer and treating an inflammation” (priority 2001, published 2005):

Legend:
[1] = target: T1, iNOS (Mus musculus, UniProt P29477); experiment: Inhibition of LPS-induced iNOS activity (nitric oxide production) in RAW264.7 macrophage cells; type: cell-based; details: LPS 1 μg/ml, 20 hr
T1 construct: endogenous in cells; host or cells: RAW264.7 macrophage cells, LPS-stimulated
T1 sequence (P29477 1-1144): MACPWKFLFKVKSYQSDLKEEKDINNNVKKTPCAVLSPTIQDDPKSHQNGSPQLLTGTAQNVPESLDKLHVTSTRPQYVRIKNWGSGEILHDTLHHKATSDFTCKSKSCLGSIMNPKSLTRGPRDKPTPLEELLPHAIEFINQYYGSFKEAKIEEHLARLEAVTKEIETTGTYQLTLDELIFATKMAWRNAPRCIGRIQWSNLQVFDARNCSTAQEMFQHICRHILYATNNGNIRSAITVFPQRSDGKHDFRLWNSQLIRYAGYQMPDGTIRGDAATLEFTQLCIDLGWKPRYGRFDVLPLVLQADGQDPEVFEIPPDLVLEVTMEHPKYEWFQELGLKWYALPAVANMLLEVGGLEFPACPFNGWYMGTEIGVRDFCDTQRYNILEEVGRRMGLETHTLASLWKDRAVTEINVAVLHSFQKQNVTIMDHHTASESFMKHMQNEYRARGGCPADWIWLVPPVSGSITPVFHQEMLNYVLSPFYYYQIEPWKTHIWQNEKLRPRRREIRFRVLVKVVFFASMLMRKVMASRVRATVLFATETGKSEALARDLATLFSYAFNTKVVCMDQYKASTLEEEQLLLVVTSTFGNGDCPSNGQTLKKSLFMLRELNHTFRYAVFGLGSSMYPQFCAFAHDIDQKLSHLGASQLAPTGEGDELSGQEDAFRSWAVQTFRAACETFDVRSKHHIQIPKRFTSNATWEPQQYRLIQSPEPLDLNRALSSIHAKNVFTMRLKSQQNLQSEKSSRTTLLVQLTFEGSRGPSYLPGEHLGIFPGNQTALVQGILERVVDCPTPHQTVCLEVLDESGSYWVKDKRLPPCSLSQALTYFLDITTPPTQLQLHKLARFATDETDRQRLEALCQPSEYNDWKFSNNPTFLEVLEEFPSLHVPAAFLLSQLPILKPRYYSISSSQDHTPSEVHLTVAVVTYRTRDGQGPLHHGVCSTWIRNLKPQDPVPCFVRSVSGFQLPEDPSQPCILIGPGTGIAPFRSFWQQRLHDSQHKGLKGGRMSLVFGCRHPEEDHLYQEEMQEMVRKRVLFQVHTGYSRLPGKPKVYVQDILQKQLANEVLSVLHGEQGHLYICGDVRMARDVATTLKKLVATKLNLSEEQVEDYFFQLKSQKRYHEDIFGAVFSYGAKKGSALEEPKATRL
Description: The effect of xanthorrhizol on iNOS activity induced by LPS was measured. RAW264.7 macrophage cells were maintained in DMEM supplemented with penicillin-streptomycin and 10% FBS at 37° C., in 5% CO2 of humidified air. The cells in 10% FBS-DMEM without phenol red media were plated in 24-well plates (8×10^5/ml), and then incubated for 4 hr. The cells were replaced with new media, and incubated in the medium with 1 μg/ml of LPS and xanthorrhizol. After an additional 20 hr incubation, the media were removed and analyzed for nitrite accumulation as an indicator of NO production by the Griess reaction. 150 μl of Griess reagent were added to 100 μl of each supernatant from LPS and/or xanthorrhizol treated cells in triplicate. The plates were incubated for 10 min, and were read at 570 nm against a standard curve of NaNO2. The percentage inhibition was expressed as [1−(NO level of sample/NO level of vehicle treated−control)]×100.

[2] = system: IκBα; experiment: Inhibition of IκB degradation in mouse skin treated with TPA (western blotting); type: in vivo; details: mouse skin cytoplasmic extract, topical pretreatment before TPA
Description: To examine the effect of xanthorrhizol on IκB, the level of IκB was measured in mouse skin. Cytoplasmic extract was prepared as follows. The mouse skin tissue obtained by the same method of embodiment 4 was homogenized in hypotonic buffer solution [10 mM HEPES, pH 7.8, 10 mM KCl, 2 mM MgCl2, 1 mM DTT, 0.1 mM EDTA, 0.1 mM phenylmethylsulfonyl fluoride (PMSF)]. To the homogenates was added 125 μl of 10% Nondiet P-40 solution and the mixture was then centrifuged for 30 sec. The supernatant (cytoplasmic extract) was electrophoresized on the 12% SDS-polyacrylamide gel. Blot was transferred from SDS-polyacrylamide gel to PVDF membrane, blocked with 5% fat-free dry milk-PBST buffer for 2 hr at room temperature and then washed in PBST buffer. Membrane was incubated for 2 hr at room temperature with rabbit IκBα polyclonal antibody (Santa Cruz Product, Santa Cruz, Calif., USA). Blot was rinsed with PBST, incubated with anti-rabbit horseradish peroxidase-conjugated secondary antibody (Santa Crus product, Santa Cruz, Calif., USA) and again washed 3 times in PBST buffer for 5 min. Transferred protein was visualized with an ECL detection kit.

[3] = system: HL-60 cells; experiment: Apoptosis morphology in HL-60 cells (Hoechst 33258 staining, fluorescence microscopy); type: cell-based, Human; details: xanthorrhizol 40 μM, 24 hr
Description: Human promyelocytic leukemia (HL-60) cells were maintained at 37° C. in a humidified atmosphere of 95% air and 5% CO2 in RPMI 1640 supplemented with 10% (v/v) heat-inactivated fetal bovine serum (FBS). HL-60 cells were cultured in 6-well plate in RPMI 1640 medium containing 10% FBS in the absence or presence of the methanolic extract of Curcuma xanthorrhiza (15 μg/ml) and xanthorrhizol (40 μM) and centrifuged after 24 hr. 4% neutral buffered formaline was added to the cell and the mixture was transferred to slides, which were left at room temperature for dryness. The fixed cells were washed in PBS, air-dried and stained with DNA-specific fluorochrome Hoechest 33258 for 1 min. The adhered cells were washed with PBS, air dried, and mounted with 50% glycerol. The slides were observed by fluorescence microscopy.

[4] = system: procaspase-3; experiment: Activation of procaspase-3 in HL-60 cells (western blotting); type: cell-based, Human; details: 40 μM
Description: To investigate whether xanthorrhizol also induces the activation of procaspase-3, HL-60 cells were treated with 0, 10, 40, 80 μM of xanthorrhizol for 24 hr and was also treated with 80 μM of xanthorrhizol for 0, 2, 4, 6, 9 and 12 hr. The cells were harvested, suspended in 400 μl of lysis buffer described in embodiment 4, incubated 4° C. for 40 min and centrifuged. The supernatant was electrophoresized on the 12% SDS-polyacrylamide gel. Blot was transferred from SDS-polyacrylamide gel to PVDF membrane, blocked with 5% fat-free dry milk-PBST buffer for 2 hr at room temperature and then washed in PBST buffer. Membrane was incubated for 2 hr at room temperature with mouse procaspase-3 monoclonal antibody (Transduction Laboratories, Lexington, Ky., USA). Blot was rinsed with PBST, incubated with mouse horseradish peroxidase-conjugated secondary antibody and again washed 3 times in PBST buffer for 5 min. Transferred protein was visualized with an ECL detection kit.

CC(C)=CCC[C@@H](C)c1ccc(C)c(O)c1 [xanthorrhizol]
IC50 ([1]; read-out: IC50, LPS-induced iNOS activity (NO) (converted)): 4.63 µM | inhibition at 10 µg/mL ([1]; RAW264.7, 10 μg/ml, read-out: percentage inhibition of LPS-induced nitric oxide production (iNOS activity)): ≥ 99% | degradation of IκBα induced by TPA [2]: inhibited by xanthorrhizol in a dose dependent manner | morphological characteristics of apoptosis [3]: distinct chromatin condensation and nuclear fragmentation | activation of procaspase-3 [4]: activated the procaspase-3 to caspase-3
